Data taken from US10167300B2, “Metalloenzyme inhibitor compounds as fungicides” (priority 2014, dated 2019).
Where two headings read alike, the source gives them in different places.

Experiment: Type B (low volume, EC formulation, track sprayer 200 L/ha) assay, leaf blotch of wheat, SEPTTR field isolate (FI SEPTTR)
Type: in vivo, Mycosphaerella graminicola on wheat plants (variety Yuma)
Conditions: Zymoseptoria tritici, 72 h
Method: Example A: Evaluation of Fungicidal Activity: Leaf Blotch of Wheat (Mycosphaerella graminicola; Anamorph: Septoria tritici; Bayer Code SEPTTR)
For Type A assays, technical grades of the experimental fungicides in Table 4 below were dissolved in acetone, and then mixed with nine volumes of water containing 110 ppm Triton X-100. The fungicide solutions were applied onto wheat seedlings using an automated booth sprayer. For Type B assays, emulsifiable concentrate (EC) formulations of technical grades of the experimental fungicides in Table 4 below were prepared at 10% (w/v), and then mixed with 150 volumes of 0.1% Trycol 5941. These solutions were applied onto wheat seedlings using an automated track sprayer at 200 L/ha. All sprayed plants were allowed to air dry prior to further handling.
Wheat plants (variety Yuma) were grown from seed in a greenhouse in 50% mineral soil/50% soil-less Metro mix until the first leaf was fully emerged, with 7-10 seedlings per pot. Prior to or after application of experimental fungicides, plants were inoculated either with spores of a standard laboratory SEPTTR isolate (SI SEPTTR) or with spores from a SEPTTR field isolate collected from Wellsbourne, England in 2012 (FI SEPTTR). After inoculation the plants were kept for 3 days at 20° C. in 100% relative humidity (one day in a dark dew chamber followed by two days in a lighted dew chamber). Plants were then transferred to a 20° C. greenhouse for disease development. When disease symptoms were fully expressed on untreated plants, infection levels on treated plants were assessed on a scale of 0 to 100 percent disease severity. Percent disease control was calculated using the ratio of disease severity on treated plants relative to untreated plants.

[1] = field isolate, low volume EC, 100 g/ha, 3 Day Curative, wheat (Yuma), read-out: Disease Control, FI SEPTTR Type B Assay (100 g/ha) 3 DC
[2] = field isolate, low volume EC, 100 g/ha, 3 Day Protectant, wheat (Yuma), read-out: Disease Control, FI SEPTTR Type B Assay (100 g/ha) 3 DP
[3] = SEPTTR field isolate, low volume Type B assay, 100 g/ha, 3 Day Curative, wheat leaf blotch, read-out: Disease Control, FI SEPTTR Type B Assay (100 g/ha) 3 DC
[4] = SEPTTR field isolate, low volume Type B assay, 100 g/ha, 3 Day Protectant, wheat leaf blotch, read-out: Disease Control, FI SEPTTR Type B Assay (100 g/ha) 3 DP

| SMILES | pest or weed control at 100 g/ha [1] [%] | pest or weed control at 100 g/ha [2] [%] | also measured |
| --- | --- | --- | --- |
| COC(C)(c1cncnc1)c1ccc(-c2ccc(OC(F)(F)F)cc2)cn1 (centres unmarked) [Compound 241] | < 40 | 40 to 59 | – |
| CC#CC(OC)(c1cncnc1)c1ccc(-c2ccc(OC(F)(F)F)cc2F)cn1 (centres unmarked) [Compound 182] | < 40 | 60 to 79 | – |
| CC(C)(C)C(O)(Cc1cncnc1)c1ccc(-c2ccc(OCC(F)(F)F)nc2)cn1 (centres unmarked) [Compound 195] | < 40 | 40 to 59 | – |
| C#CCOC(C)(c1cncnc1)c1ccc(-c2ccc(OC(F)(F)F)cc2F)cn1 (centres unmarked) [Compound 237] | < 40 | 40 to 59 | – |
| CC(C)(C#N)c1ccc(-c2ccc(C(O[Si](C)(C)C)(c3cncnc3)C(C)(C)C)nc2)cc1 (centres unmarked) [Compound 259] | – | – | pest or weed control at 100 g/ha (read-out: Disease Control, FI SEPTTR Type B Assay (100 g/ha) 3 DC): 60 to 79%; pest or weed control at 100 g/ha (read-out: Disease Control, FI SEPTTR Type B Assay (100 g/ha) 3 DP): 80 to 100% |
| COc1ncncc1C(O)(c1ccc(-c2ccc(C(C)(F)F)cc2)cn1)C(C)(C)C (centres unmarked) [Compound 246] | 60 to 79 | 80 to 100 | – |
| C#CCOC(c1cncnc1)(c1ccc(-c2ccc(OC(F)(F)F)cc2)cn1)C(C)(C)C (centres unmarked) [Compound 197] | < 40 | 80 to 100 | – |
| CC(C)(C)C(O)(c1ccc(-c2ccc(OC(F)(F)F)cc2F)cn1)c1cnccn1 (centres unmarked) [Compound 271] | – | – | pest or weed control at 100 g/ha [3]: < 40%; pest or weed control at 100 g/ha [4]: 80 to 100% |
| COC(c1cncnc1)(c1ccc(-c2ccc(OCC(F)(F)F)nc2)cn1)C(C)(C)C (centres unmarked) [Compound 253] | 80 to 100 | 80 to 100 | – |
| CC#CC(OC)(c1cncnc1)c1ccc(-c2ccc(OC(F)(F)F)cc2)cn1 (centres unmarked) [Compound 217] | < 40 | < 40 | – |
| C#CCOC(c1cncnc1)(c1ccc(-c2ccc(OC(F)(F)F)cc2F)cn1)C(C)C (centres unmarked) [Compound 191] | < 40 | 80 to 100 | – |
| CSc1cc(C(C)(C)C#N)ccc1-c1ccc(C(O)(c2cncnc2)C(C)(C)C)nc1 (centres unmarked) [Compound 216, 2-(4-(6-(1-hydroxy-2,2-dimethyl-1-(pyrimidin-5-yl)propyl)pyridin-3-yl)-3-(methylthio)phenyl)-2-methylpropanenitrile] | 80 to 100 | 80 to 100 | – |
| C#CCOC(C#CC)(c1cncnc1)c1ccc(-c2ccc(OC(F)(F)F)cc2)cn1 (centres unmarked) [Compound 270] | – | – | pest or weed control at 100 g/ha [3]: < 40%; pest or weed control at 100 g/ha [4]: 40 to 59% |
| CCOC(c1cncnc1)(c1ccc(-c2ccc(OC(F)(F)F)cc2F)cn1)C(C)C (centres unmarked) [Compound 176] | < 40 | 60 to 79 | – |
| CCOC(C)(c1cncnc1)c1ccc(-c2ccc(OC(F)(F)F)cc2)cn1 (centres unmarked) [Compound 177] | < 40 | 60 to 79 | – |
| COC(c1cncnc1)(c1ccc(-c2ccc(C(C)(C)C#N)cc2F)cn1)C(C)(C)C (centres unmarked) [Compound 228] | 80 to 100 | 80 to 100 | – |
| CC(C)(C)C(O)(c1cncnc1)c1ccc(-c2ccc(I)cc2)cn1 (centres unmarked) [Compound 165, 1-(5-(4-iodophenyl)pyridin-2-yl)-2,2-dimethyl-1-(pyrimidin-5-yl)propan-1-ol] | 80 to 100 | 80 to 100 | – |
| COc1ncncc1C(O)(c1ccc(-c2ccc(C(C)(C)C#N)cc2F)cn1)C(C)(C)C (centres unmarked) [Compound 256] | 80 to 100 | 80 to 100 | – |
| C#CCOC(c1cncnc1)(c1ccc(-c2ccc(OC(F)(F)F)cc2F)cn1)C(C)(C)C (centres unmarked) [Compound 189] | 40 to 59 | 80 to 100 | – |
| CC(C)(C)C(O)(c1cncnc1)c1ccc(-c2ccc(F)cc2Cl)cn1 (centres unmarked) [Compound 166] | 80 to 100 | 80 to 100 | – |
| CCOC(c1cncnc1)(c1ccc(-c2ccc(OC(F)(F)F)cc2)cn1)C1CC1 (centres unmarked) [Compound 232] | < 40 | 60 to 79 | – |
| CC(C)(C)C(O)(c1cncnc1)c1ccc(-c2ccc(C3(C#N)CC3)cc2F)cn1 (centres unmarked) [Compound 236] | 80 to 100 | 80 to 100 | – |
| COc1ncncc1C(O)(c1ccc(-c2ccc(C3(C#N)CC3)cc2F)cn1)C(C)(C)C (centres unmarked) [Compound 233] | 80 to 100 | 80 to 100 | – |

| SMILES | pest or weed control at 100 g/ha [1] [%] | pest or weed control at 100 g/ha [2] [%] | also measured |
| --- | --- | --- | --- |
| CC(C)(C)c1ccc(-c2ccc(C(O)(Cc3cccnc3)C(C)(C)C)nc2)cc1 (centres unmarked) [Compound 201] | 60 to 79 | 80 to 100 | – |
| COC(c1cncnc1)(c1ccc(-c2ccc(OC(F)(F)F)cn2)cn1)C(C)(C)C (centres unmarked) [Compound 173] | 80 to 100 | 80 to 100 | – |
| CC(C)(C)C(O)(Cc1cccnc1)c1ccc(-c2ccc(OCC(F)(F)F)nc2)cn1 (centres unmarked) [Compound 234] | 40 to 59 | 60 to 79 | – |
| CCOC(c1cncnc1)(c1ccc(-c2ccc(OC(F)(F)F)cc2F)cn1)C(C)(C)C (centres unmarked) [Compound 220] | < 40 | 80 to 100 | – |
| COc1ncncc1C(O)(c1ccc(-c2ccc(OC(F)(F)F)cc2F)cn1)C(C)(C)C (centres unmarked) [Compound 187] | 80 to 100 | 80 to 100 | – |
| CC#CC(O)(c1cncnc1)c1ccc(-c2ccc(OC(F)(F)F)cc2F)cn1 (centres unmarked) [Compound 185] | < 40 | 80 to 100 | – |
| CCc1cc(C(C)(C)C#N)ccc1-c1ccc(C(O)(c2cncnc2)C(C)(C)C)nc1 (centres unmarked) [Compound 179] | 80 to 100 | 80 to 100 | – |
| CO/N=C(/C)c1ccc(-c2ccc(C(O)(c3cncnc3)C(C)(C)C)nc2)cc1 (centres unmarked) [Compound 132, (Z)-1-(4-(6-(1-hydroxy-2,2-dimethyl-1-(pyrimidin-5-yl)propyl)pyridin-3-yl)phenyl)ethanone O-methyl oxime] | 80 to 100 | 80 to 100 | – |
| C#CCOC(CC)(c1cncnc1)c1ccc(-c2ccc(OC(F)(F)F)cc2)cn1 (centres unmarked) [Compound 260] | – | – | pest or weed control at 100 g/ha [3]: < 40%; pest or weed control at 100 g/ha [4]: 40 to 59% |
| CC#CC(O)(c1cncnc1)c1ccc(-c2ccc(OC(F)(F)F)cc2)cn1 (centres unmarked) [Compound 266] | – | – | pest or weed control at 100 g/ha [3]: < 40%; pest or weed control at 100 g/ha [4]: 60 to 79% |
| CC(C)(C)c1ccc(-c2ccc(C(O)(Cc3cncnc3)C(C)(C)C)nc2)cc1 (centres unmarked) [Compound 181] | < 40 | 60 to 79 | – |
| C#CCOC(C#CC)(c1cncnc1)c1ccc(-c2ccc(OC(F)(F)F)cc2F)cn1 (centres unmarked) [Compound 248] | < 40 | 40 to 59 | – |
| C#CCOC(c1cncnc1)(c1ccc(-c2ccc(OC(F)(F)F)cc2F)cn1)C1CC1 (centres unmarked) [Compound 250] | < 40 | 80 to 100 | – |
| C#CCOC(CC)(c1cncnc1)c1ccc(-c2ccc(OC(F)(F)F)cc2F)cn1 (centres unmarked) [Compound 238] | 60 to 79 | < 40 | – |
| COC(c1cncnc1)(c1ccc(-c2ccc(C3(C#N)CC3)cc2)cn1)C(C)(C)C (centres unmarked) [Compound 192] | 80 to 100 | 80 to 100 | – |
| CC(C)(C)C(O)(Cc1cncnc1)c1ccc(-c2ccc(SC(F)(F)F)cc2)cn1 (centres unmarked) [Compound 219] | 40 to 59 | 60 to 79 | – |
| CC(C)(C#N)c1ccc(-c2ccc(C(O)(c3cncnc3)C(C)(C)C)nc2)nc1 (centres unmarked) [Compound 183] | 80 to 100 | 80 to 100 | – |
| CCC(OC)(c1cncnc1)c1ccc(-c2ccc(OC(F)(F)F)cc2)cn1 (centres unmarked) [Compound 213] | 60 to 79 | 60 to 79 | – |
| COC(c1cncnc1)(c1ccc(-c2ccc(OC(F)(F)F)cc2F)cn1)C(C)C (centres unmarked) [Compound 249] | 60 to 79 | 80 to 100 | – |
| COC(C)(c1cncnc1)c1ccc(-c2ccc(OC(F)(F)F)cc2F)cn1 (centres unmarked) [Compound 206] | < 40 | 40 to 59 | – |
| CC(C)(C)C(O)(c1cncnc1)c1ccc(-c2c(F)cc(OC(F)(F)F)cc2F)cn1 (centres unmarked) [Compound 210] | 80 to 100 | 80 to 100 | – |
| CC(C)(C)C(O)(c1ccc(-c2ccc(OC(F)(F)F)cc2)cn1)c1cccnc1Cl (centres unmarked) [Compound 235] | 60 to 79 | 80 to 100 | – |
| C#CCOC(O)(c1cncnc1)c1ccc(-c2ccc(OC(F)(F)F)cc2)cn1 (centres unmarked) [Compound 243] | < 40 | 80 to 100 | – |
